# Earlier results, collected in patent publication US20040110781A1 (priority 2002, published 2004).
# System: excitory opioid receptors on sensory neurons
structure (smiles),measurement,value
C[C@@H](NC(=O)[C@@H](N)Cc1ccc(O)cc1)C(=O)NCC(=O)N[C@@H](Cc1ccccc1)C(=O)NNC(=O)[C@H](Cc1ccccc1)NC(=O)CNC(=O)[C@@H](C)NC(=O)[C@@H](N)Cc1ccc(O)cc1 [biphalin],action on excitory opioid receptor functions,selective antagonists of excitory opioid receptors functions
